Measured values taken from patent US7662832B2, “Pyrrolo[2,3-c]pyridine derivatives and processes for the preparation thereof” (priority 2004, dated 2010).
Structures can show the parent of a compound that is named as a salt.

Tests used:
[1] = test system: basal gastric acid secretion; test: Inhibitory effects on basal gastric acid secretion in pylorus-ligated rats (Shay's rat model); format: in vivo, Sprague Dawley (SD) rats; settings: oral, one hour before pylorus ligation, total acid output 5 hours after ligation
Experimental: Inhibitory effects of the compounds of the present invention on basal gastric acid secretion were performed according to Shay's rat model (Shay, H., et al., 1945, gastroenterology, 5, 43-61). Male Sprague Dawley (SD) rats (200±10 g body weight) were divided into […] (n=5) and fasted for 24 hours with free access to water. Control group was orally administered with 0.5% methylcellulose alone and the other groups were orally administered with test compounds suspended in 0.5% methylcellulose solution at doses of 1, 3 and 10 mg/kg/5 ml one hour before pylorus ligation.
Under ether anesthesia, the abdomens of the rats were incised and then the pylorus was ligated. 5 hours after ligation, the animals were sacrificed, and the gastric contents were collected. The collected contents were centrifuged at 1,000×g for 10 minutes to obtain the gastric juice. Total acid output was measured by 0.01N NaOH volume (ueq/ml) for automatic titration of the gastric juice to pH 7.0 and the ED50s of test compounds were calculated using the Litchfield-Wilcoxon method. % inhibitory activity was calculated from the following equation and the results are shown in Table 2. % inhibitory activity of test compound=(total acid output of control group−total acid output of the group treated with test compounds)/total acid output of control group×100

[2] = biological target: Proton Pump (H^+/K^+-ATPase) (Sus scrofa, UniProt P19156); test: Inhibitory effects on proton pump (H^+/K^+-ATPase) activity; format: biochemical; settings: hog gastric vesicles; K^+ stimulated H^+/K^+-ATPase activity; 30 minutes at 37° C.
Proton Pump (H^+/K^+-ATPase), sequence (P19156 2-1034 limits assumed): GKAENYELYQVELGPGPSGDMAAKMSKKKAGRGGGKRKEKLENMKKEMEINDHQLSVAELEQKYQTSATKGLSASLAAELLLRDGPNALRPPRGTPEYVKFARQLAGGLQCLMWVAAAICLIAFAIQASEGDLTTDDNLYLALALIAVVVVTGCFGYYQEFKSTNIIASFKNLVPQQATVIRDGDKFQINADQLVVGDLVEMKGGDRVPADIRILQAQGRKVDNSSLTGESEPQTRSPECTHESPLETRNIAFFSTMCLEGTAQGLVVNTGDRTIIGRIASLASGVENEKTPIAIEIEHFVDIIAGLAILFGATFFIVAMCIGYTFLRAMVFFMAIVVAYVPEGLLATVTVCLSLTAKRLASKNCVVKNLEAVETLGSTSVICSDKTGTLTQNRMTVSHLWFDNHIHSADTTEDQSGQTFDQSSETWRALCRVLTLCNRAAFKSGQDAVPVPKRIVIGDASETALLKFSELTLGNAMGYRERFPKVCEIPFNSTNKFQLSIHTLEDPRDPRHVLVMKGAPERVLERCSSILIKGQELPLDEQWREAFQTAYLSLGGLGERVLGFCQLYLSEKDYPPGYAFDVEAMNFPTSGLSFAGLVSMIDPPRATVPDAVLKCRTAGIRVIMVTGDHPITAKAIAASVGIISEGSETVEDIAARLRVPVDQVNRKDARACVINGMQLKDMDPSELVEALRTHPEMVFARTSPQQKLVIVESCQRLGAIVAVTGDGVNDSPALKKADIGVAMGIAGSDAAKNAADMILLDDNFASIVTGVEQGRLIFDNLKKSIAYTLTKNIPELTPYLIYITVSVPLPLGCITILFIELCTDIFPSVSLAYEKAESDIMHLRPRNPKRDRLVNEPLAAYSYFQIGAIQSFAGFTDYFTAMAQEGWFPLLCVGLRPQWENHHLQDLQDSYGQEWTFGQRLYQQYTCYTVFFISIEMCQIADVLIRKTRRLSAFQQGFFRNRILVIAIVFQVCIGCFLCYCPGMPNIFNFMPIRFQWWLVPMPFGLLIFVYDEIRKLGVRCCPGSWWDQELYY
Proton Pump (H^+/K^+-ATPase), sequence (P18434 whole entry partner): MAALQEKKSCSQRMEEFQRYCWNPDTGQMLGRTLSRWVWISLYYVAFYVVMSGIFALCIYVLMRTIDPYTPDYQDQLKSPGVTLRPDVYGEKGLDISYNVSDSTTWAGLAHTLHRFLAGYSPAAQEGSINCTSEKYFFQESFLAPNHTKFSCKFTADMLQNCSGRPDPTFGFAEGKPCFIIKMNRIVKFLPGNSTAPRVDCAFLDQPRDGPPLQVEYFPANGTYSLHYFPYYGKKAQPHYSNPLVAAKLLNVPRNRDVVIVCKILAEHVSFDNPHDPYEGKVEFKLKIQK

Row | SMILES | IC50 [2] [nM] | ED50 [1] [mg/kg]
1 | Cc1c(C)n(Cc2cccc(F)c2)c2c(NCc3ccc(F)cc3)nccc12.Cl [Example 207, 1-(3-fluorobenzyl)-7-(4-fluorobenzylamino)-2,3-dimethyl-1H-pyrrolo[2,3-c]pyridine hydrochloride] | – | 8.3
2 | Cc1c(C)n(Cc2ccc(F)cc2)c2c(NCc3ccc(Cl)cc3)nccc12.Cl [Example 218, 7-(4-chlorobenzylamino)-1-(4-fluorobenzyl)-2,3-dimethyl-1H-pyrrolo[2,3-c]pyridine hydrochloride] | – | 4.1
3 | C=CCn1c(C)c(C)c2ccnc(N3CCc4ccccc4C3)c21.Cl [Example 484, 1-allyl-7-(1,2,3,4-tetrahydroisoquinolin-2-yl)-2,3-dimethyl-1H-pyrrolo[2,3-c]pyridine hydrochloride] | 3.7 | 1.4
4 | Cc1[nH]c2c(-c3ccc4ccccc4c3)nccc2c1C.Cl [Example 402, 2,3-dimethyl-7-(naphthalen-2-yl)-1H-pyrrolo[2,3-c]pyridine hydrochloride] | 63 | 11.2
5 | Cc1c(C)n(Cc2ccc(C(C)(C)C)cc2)c2c(N3CCc4ccccc4C3)nccc12.Cl [Example 507, 1-(4-tert-butylbenzyl)-7-(1,2,3,4-tetrahydroisoquinolin-2-yl)-2,3-dimethyl-1H-pyrrolo[2,3-c]pyridine hydrochloride] | – | 3.1
6 | Cc1ccccc1CNc1nccc2c(C)c(C)n(CC(C)C)c12.Cl [Example 210, 1-isobutyl-2,3-dimethyl-7-(2-methylbenzylamino)-1H-pyrrolo[2,3-c]pyridine hydrochloride] | 54 | 1.9
7 | Cc1c(C)n(Cc2cccc(F)c2)c2c(N(C)Cc3ccc(F)cc3)nccc12 [Example 159, 1-(3-fluorobenzyl)-7-[N-(4-fluorobenzyl)-N-methyl]amino-2,3-dimethyl-1H-pyrrolo[2,3-c]pyridine hydrochloride] | 90 | –
8 | Cc1c(C)n(Cc2ccccc2)c2c(NCc3ccc(F)cc3)nc(C(=O)N3CCN(C)CC3)cc12 [Example 906, [1-benzyl-7-(4-fluorobenzylamino)-2,3-dimethyl-1H-pyrrolo[2,3-c]pyridin-5-yl]-(4-methylpiperazin-1-yl)-methanone hydrochloride] | 31 | –
9 | COC(=O)c1cc2c(C)c(C)n(Cc3ccccc3)c2c(N2CCc3ccccc3C2)n1 [Example 743, 1-benzyl-7-(3,4-dihydro-1H-isoquinolin-2-yl)-2,3-dimethyl-1H-pyrrolo[2,3-c]pyridin-5-carboxylic acid methyl ester] | 231 | –
10 | COc1cccc(Cn2c(C)c(C)c3cc(CN4CCN(C)CC4)nc(N4CCc5ccccc5C4)c32)c1 [Example 876, 2-[1-(3-methoxybenzyl)-2,3-dimethyl-5-(4-methylpiperazin-1-ylmethyl)-1H-pyrrolo[2,3-c]pyridin-7-yl]-1,2,3,4-tetrahydroisoquinoline hydrochloride] | 99 | –
11 | Cc1[nH]c2c(-c3ccc(Cl)cc3)nccc2c1C [Example 299, 7-(4-chlorophenyl)-2,3-dimethyl-1H-pyrrolo[2,3-c]pyridine hydrochloride] | 350 | –
12 | C=Cc1ccc(-c2nccc3c(C)c(C)[nH]c23)cc1 [Example 242, 2,3-dimethyl-7-(4-vinylphenyl)-1H-pyrrolo[2,3-c]pyridine] | 100 | –
13 | Cc1ccc(-c2nccc3c(C)c(C)n(Cc4cccc(F)c4)c23)cc1 [Example 284, 2,3-dimethyl-1-(3-fluorobenzyl)-7-(p-tolyl)-1H-pyrrolo[2,3-c]pyridine hydrochloride] | 267 | –
14 | COc1cccc(Cn2c(C)c(C)c3cc(C(=O)N4CCNCC4)nc(N4CCc5ccccc5C4)c32)c1 [Example 822, [7-(3,4-dihydro-1H-isoquinolin-2-yl)-1-(3-methoxybenzyl)-2,3-dimethyl-1H-pyrrolo[2,3-c]pyridin-5-yl]-(piperazin-1-yl)-methanone hydrochloride] | 23 | –

Now from value to compound, other results behind:

Row | IC50 [2] [nM] | SMILES | ED50 [1] [mg/kg]
15 | 470 | CCCn1c(C)c(C)c2ccnc(N3CCc4ccccc4C3)c21.Cl [Example 473, 1-propyl-7-(1,2,3,4-tetrahydroisoquinolin-2-yl)-2,3-dimethyl-1H-pyrrolo[2,3-c]pyridine hydrochloride] | 2.8
16 | 300 | Cc1ccc(Cn2c(C)c(C)c3ccnc(N4CCc5ccccc5C4)c32)cc1.Cl [Example 477, 1-(4-methylbenzyl)-7-(1,2,3,4-tetrahydroisoquinolin-2-yl)-2,3-dimethyl-1H-pyrrolo[2,3-c]pyridine hydrochloride] | 2
17 | 360 | COc1ccc(Cn2c(C)c(C)c3ccnc(N4CCc5ccccc5C4)c32)cc1.Cl [Example 482, 1-(4-methoxybenzyl)-7-(1,2,3,4-tetrahydroisoquinolin-2-yl)-2,3-dimethyl-1H-pyrrolo[2,3-c]pyridine hydrochloride] | 2.4
18 | 420 | C=COCCn1c(C)c(C)c2ccnc(N3CCc4ccccc4C3)c21.Cl [Example 511, 1-(2-vinyloxyethyl)-7-(1,2,3,4-tetrahydroisoquinolin-2-yl)-2,3-dimethyl-1H-pyrrolo[2,3-c]pyridine hydrochloride] | 2.1
19 | 52 | Cc1c(C)n(Cc2ccccc2)c2c(N3CCc4ccccc4C3)nccc12.Cl [Example 469, 1-benzyl-7-(1,2,3,4-tetrahydroisoquinolin-2-yl)-2,3-dimethyl-1H-pyrrolo[2,3-c]pyridine hydrochloride] | 1.4
20 | 240 | CCCn1c(C)c(C)c2ccnc(NCc3ccc(Cl)cc3)c21.Cl [Example 229, 7-(4-chlorobenzylamino)-2,3-dimethyl-1-propyl-1H-pyrrolo[2,3-c]pyridine hydrochloride] | 2.2
21 | 110 | Cc1nc(Cn2c(C)c(C)c3ccnc(N4CCc5ccccc5C4)c32)cs1.Cl [Example 474, 1-(2-methylthiazol-4-ylmethyl)-7-(1,2,3,4-tetrahydroisoquinolin-2-yl)-2,3-dimethyl-1H-pyrrolo[2,3-c]pyridine hydrochloride] | 11.9
22 | 49 | C=CCn1c(C)c(C)c2ccnc(N3CCc4cc(F)ccc4C3C)c21.Cl (stereo not drawn) [Example 563, 2-(1-allyl-2,3-dimethyl-1H-pyrrolo[2,3-c]pyridin-7-yl)-6-fluoro-1-methyl-1,2,3,4-tetrahydroisoquinoline hydrochloride] | 3.5
23 | 400 | CC(C)=CCn1c(C)c(C)c2ccnc(N3CCc4ccc(Cl)cc4C3C)c21 (stereo not drawn) [Example 534, 7-chloro-2-[2,3-dimethyl-1-(3-methylbut-2-enyl)-1H-pyrrolo[2,3-c]pyridin-7-yl]-1-methyl-1,2,3,4-tetrahydroisoquinoline hydrochloride] | –
24 | 490 | C=CCn1c(C)c(C)c2cc(C#N)nc(N3CCc4ccccc4C3)c21 [Example 684, 1-allyl-7-(3,4-dihydro-1H-isoquinolin-2-yl)-2,3-dimethyl-1H-pyrrolo[2,3-c]pyridin-5-carbonitrile] | –
25 | 350 | C=CCn1c(C)c(C)c2cc(C(=O)NCC(F)(F)F)nc(N3CCc4ccccc4C3)c21 [Example 762, 1-allyl-7-(3,4-dihydro-1H-isoquinolin-2-yl)-2,3-dimethyl-N-(2,2,2-trifluoroethyl)-1H-pyrrolo[2,3-c]pyridin-5-carboxamide] | –
